Assay: Solubility of caffeine in caffeine-containing compositions containing various helper esters
Conditions: compared with caffeine in pure water; Tables 1-9

For `CC(C)OC(=O)[C@@H](N)Cc1c[nH]c2ccccc12` [tryptophan isopropyl ester], the “solubility of caffeine in water with helper ester (statement in words)” value was “increased”.
